Compound: C[C@@H](Oc1cc(-c2cnn(C3CCNCC3)c2)cnc1N)c1c(Cl)ccc(F)c1Cl [Crizotinib] + CC(=O)Nc1cccc(-n2c(=O)n(C3CC3)c(=O)c3c(Nc4ccc(I)cc4F)n(C)c(=O)c(C)c32)c1 [Trametinib] (partner 0.02 µM)
Test: relative viability (nuclei count vs DMSO), 5 days (fraction); higher = more cells survive
Method in brief: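 For relative viability, nuclei counts in treated wells were divided by those in vehicle wells. Lung cancer cell lines had been pin-tool dosed in 1536-well plates the day after seeding and cultured for 5 days, then fixed and stained in one step (final 0.05% Triton X-100, 1% formaldehyde, 1 ug/ml Hoechst) and imaged at 4×. Doses were one drug alone or a fixed anchor-drug dose plus five library-drug doses (not always all listed) in √10 steps, and values are duplicate-plate medians.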

Cell Line	relative viability (first compound 0.01 µM)	relative viability (first compound 0.03162 µM)	relative viability (first compound 0.1 µM)	relative viability (first compound 0.3162 µM)	relative viability (first compound 1 µM)
201T	0.678	0.706	0.747	0.72	0.754
A-427	0.717	0.771	0.724		0.78
BEN		0.982	0.948	1.15	1.17
CAL-12T	0.268	0.413	0.32	0.393	0.374
COR-L23	0.567	0.605	0.563	0.525	0.633
COR-L 105	0.426	0.463	0.413	0.41	0.43
ChaGo-K-1	0.867	0.92	0.876	0.825	0.915
EKVX	0.342	0.367	0.347	0.298	0.374
EMC-BAC-2	0.865	0.803	0.914		0.893
EPLC-272H	0.277	0.281	0.299		0.307
H3255	0.557	0.666	0.602	0.652	0.479
HARA	0.646	0.525	0.958	0.976	0.564
HCC-15	0.396	0.346	0.38		
HCC-44	0.933	1.04	1.03	1.15	1.04
HCC-78	0.631	0.873	0.723	0.706	0.909
HCC-366	0.342	0.388	0.367		0.322
HCC-827	0.462	0.567	0.53	0.508	0.552
HOP-62	0.353	0.369	0.358	0.407	0.392

Source: the supplement of paper PMC10307832
